Results as given in ChEMBL document CHEMBL1201862, “PubChem BioAssay data set” (2004).
Activity calls are given as the source filed them.

Experiments:
[1] = Trypanosoma cruzi growth suppression in host cells – NIH3T3 host cells, beta-gal luminescence, confirmation (AID 2044); format: functional, cell-based;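 also: intracellular parasites grown in NIH/3T3 mouse fibroblasts as host cells; luminescent beta-galactosidase reporter signal from transgenic T. cruzi replicating inside host cells; inhibitors lower the luminescence signal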
[2] = NIH3T3 cell viability loss – ATP luminescence, mouse fibroblasts, counter-screen, dose response (AID 2010); format: functional, cell-based;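 also: cells exposed to compound for about 90 hours before reading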
Cytochrome P450 2C19 = Cytochrome P450 2C19 (Homo sapiens, UniProt P33261); assay: Cytochrome panel assay with activity outcomes. Panel member name: p450-cyp2c19 Compounds with AC50 equal or less than 10 uM are considered active; format: functional
Cytochrome P450 2C19, sequence (P33261 whole entry): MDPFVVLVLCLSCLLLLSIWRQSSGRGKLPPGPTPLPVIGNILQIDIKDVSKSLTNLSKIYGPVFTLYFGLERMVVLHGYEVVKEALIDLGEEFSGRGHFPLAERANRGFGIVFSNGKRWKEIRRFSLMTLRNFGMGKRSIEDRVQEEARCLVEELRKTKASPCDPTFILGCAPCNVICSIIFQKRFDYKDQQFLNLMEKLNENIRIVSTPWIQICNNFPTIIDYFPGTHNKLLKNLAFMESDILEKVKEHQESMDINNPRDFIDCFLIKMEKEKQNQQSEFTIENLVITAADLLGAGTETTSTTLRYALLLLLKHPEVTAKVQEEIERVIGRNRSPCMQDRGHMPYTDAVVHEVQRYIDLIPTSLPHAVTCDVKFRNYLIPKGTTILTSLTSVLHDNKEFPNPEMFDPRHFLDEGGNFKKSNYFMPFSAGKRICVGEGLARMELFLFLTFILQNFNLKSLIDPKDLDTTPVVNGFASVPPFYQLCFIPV

Cytochrome P450 1A2 = target: T1, Cytochrome P450 1A2 (Homo sapiens, UniProt P05177);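 also: PubChem cytochrome P450 panel assay, CYP1A2 panel member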
T1 sequence (P05177 whole entry): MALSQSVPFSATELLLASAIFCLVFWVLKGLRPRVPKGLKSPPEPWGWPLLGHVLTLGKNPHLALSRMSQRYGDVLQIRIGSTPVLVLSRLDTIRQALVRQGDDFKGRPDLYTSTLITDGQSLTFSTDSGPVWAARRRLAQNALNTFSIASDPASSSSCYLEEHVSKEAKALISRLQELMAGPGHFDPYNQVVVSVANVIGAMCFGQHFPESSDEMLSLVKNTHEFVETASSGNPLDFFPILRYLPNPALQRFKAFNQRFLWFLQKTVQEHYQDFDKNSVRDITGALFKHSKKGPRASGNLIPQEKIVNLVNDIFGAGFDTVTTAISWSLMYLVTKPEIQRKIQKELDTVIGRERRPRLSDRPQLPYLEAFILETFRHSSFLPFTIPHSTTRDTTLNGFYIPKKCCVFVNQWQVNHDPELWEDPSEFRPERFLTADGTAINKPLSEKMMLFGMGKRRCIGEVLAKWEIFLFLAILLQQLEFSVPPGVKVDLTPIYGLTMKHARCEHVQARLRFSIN

[3] = target: T2, Corticotropin-releasing factor receptor 2/Corticotropin-releasing factor-binding protein (Homo sapiens, UniProt P24387+Q13324); assay: activators of CRF receptor 2 with binding protein – uHTS hits, confirmation (AID 602473); format: functional; conditions: read-out: EC50_Mean
T2 sequence (Q13324 whole entry): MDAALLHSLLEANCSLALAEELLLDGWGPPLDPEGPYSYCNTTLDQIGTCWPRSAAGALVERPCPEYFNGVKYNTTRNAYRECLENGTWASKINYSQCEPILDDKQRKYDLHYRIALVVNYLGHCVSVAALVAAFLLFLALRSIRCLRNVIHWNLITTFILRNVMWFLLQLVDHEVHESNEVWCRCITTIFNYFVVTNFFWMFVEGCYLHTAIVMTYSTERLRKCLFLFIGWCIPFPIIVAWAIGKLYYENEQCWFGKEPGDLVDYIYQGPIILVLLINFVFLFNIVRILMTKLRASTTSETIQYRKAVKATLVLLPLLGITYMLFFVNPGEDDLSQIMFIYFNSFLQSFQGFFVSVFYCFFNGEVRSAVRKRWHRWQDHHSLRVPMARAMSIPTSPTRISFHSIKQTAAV
T2 sequence (P24387 whole entry): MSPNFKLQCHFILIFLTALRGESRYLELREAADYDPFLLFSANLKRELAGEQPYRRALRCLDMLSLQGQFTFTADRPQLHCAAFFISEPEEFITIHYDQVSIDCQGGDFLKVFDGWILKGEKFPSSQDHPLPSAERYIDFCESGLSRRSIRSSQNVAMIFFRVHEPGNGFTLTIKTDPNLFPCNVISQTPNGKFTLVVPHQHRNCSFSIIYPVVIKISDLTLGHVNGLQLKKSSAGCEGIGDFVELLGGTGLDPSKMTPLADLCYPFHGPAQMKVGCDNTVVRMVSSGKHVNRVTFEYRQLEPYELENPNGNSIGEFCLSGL

H9c2 = assay: cells; format: functional, cell-based; conditions: Rattus norvegicus, H9c2, Myocardium;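 also: confirmatory concentration-response retest of ultra-high-throughput screening hits for modulation of myocardial damage; cell death induced by hydrogen peroxide oxidative stress; compound pretreatment for 60 min then peroxide exposure for 2 h; potency is for protecting the cells against peroxide damage rather than for killing them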
Cytochrome P450 2C9 = Cytochrome P450 2C9 (Homo sapiens, UniProt P11712)
Cytochrome P450 2C9, sequence (P11712 whole entry): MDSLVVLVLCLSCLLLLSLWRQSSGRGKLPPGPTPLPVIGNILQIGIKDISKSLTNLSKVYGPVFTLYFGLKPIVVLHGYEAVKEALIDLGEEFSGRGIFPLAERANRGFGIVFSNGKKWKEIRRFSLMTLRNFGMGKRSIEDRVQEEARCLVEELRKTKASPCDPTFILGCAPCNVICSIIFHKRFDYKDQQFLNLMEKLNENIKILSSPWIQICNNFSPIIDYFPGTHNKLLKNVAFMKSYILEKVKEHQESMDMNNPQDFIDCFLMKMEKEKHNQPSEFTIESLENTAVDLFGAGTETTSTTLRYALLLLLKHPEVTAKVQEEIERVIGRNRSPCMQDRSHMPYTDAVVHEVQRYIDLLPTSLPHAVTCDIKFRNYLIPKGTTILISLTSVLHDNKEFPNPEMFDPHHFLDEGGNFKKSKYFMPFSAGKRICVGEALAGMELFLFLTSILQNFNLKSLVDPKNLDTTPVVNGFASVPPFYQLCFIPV

CCCCNC(=O)c1cc2c(=O)n3cccc(C)c3nc2n(Cc2ccccc2)c1=N
EC50 [1]: 3.03 µM (active)
EC50 [2]: > 60 µM (not active)

CS(=O)(=O)N1CCC[C@@]2(CCN(C(c3ccccc3)c3ccccc3)C2)C1
AC50 (Cytochrome P450 2C19; read-out: AC50): 3.16 µM (inconclusive)
AC50 (Cytochrome P450 1A2): 25.1 µM (inconclusive)

Cc1ccc(C(=O)N/C(=C\c2ccc(-c3ccc([N+](=O)[O-])cc3)o2)C(=O)NC2CCS(=O)(=O)C2)cc1 (stereo not given)
EC50 [3]: 8.22 µM (active)

COc1ccc(NC(=O)CN(C)C(=O)Cc2nnc(O)c3ccccc23)cc1
IC50 (H9c2): 19.6 µM (active)

CCN(CC)CCNc1nc(-c2ccccc2)c2c(c1C#N)CC(C)(C)OC2
EC50 [1]: 0.332 µM (active)
EC50 [2]: > 60 µM (not active)

Cc1ccc(C(C(=O)NCc2ccccc2)N(Cc2cccs2)C(=O)c2ccc3c(c2)OCCO3)cc1 (stereo not given)
IC50 (H9c2): > 79 µM (inactive)

Cc1ncc(CO)c2c1Oc1nc(-c3ccccc3)nc(SCC(=O)N3CCCCC3)c1C2
IC50 (H9c2): > 79 µM (inactive)

N=C(N)N/N=C/c1ccc(Br)cc1
EC50 [1]: 0.141 µM (active)
EC50 [2]: 6.37 µM (active)

CCCCc1nc(O)c2c3c(sc2n1)CCC3
IC50 (H9c2): > 79 µM (inactive)

O=C(CNC(=S)N(Cc1ccccc1)Cc1cccnc1)NC1CCCCC1
EC50 [1]: 0.516 µM (active)
EC50 [2]: 11.1 µM (active)

NC(=O)c1ccccc1OCC(=O)NC12CC3CC(CC(C3)C1)C2
IC50 (H9c2): 36.9 µM (inactive)

COc1ccc(NC(=O)CCCc2nc(O)c3ccccc3n2)cc1Cl
IC50 (H9c2): > 79 µM (inactive)

CC(=O)Nc1ccc(Sc2ncccc2C(=O)Nc2ccc(OC(F)(F)F)cc2)cn1
EC50 [3]: 2.96 µM (active)

CN(C)C(=O)COC(=O)[C@H](Cc1ccccc1)NC(=O)c1ccco1
EC50 [3]: 19.4 µM (active)

NS(=O)(=O)c1cc2c(cc1C(F)(F)F)N[C@H](Cc1ccccc1)NS2(=O)=O
AC50 (Cytochrome P450 1A2): 15.8 µM (inconclusive)

CCOc1cccc(C2C(C(=O)c3ccc(C)o3)=C(O)C(=O)N2Cc2ccncc2)c1 (stereo not given)
AC50 (Cytochrome P450 2C19; read-out: AC50): 39.8 µM (inconclusive)
AC50 (Cytochrome P450 1A2): 39.8 µM (inconclusive)

COc1ccc(C2CC(C(F)(F)F)n3nc(C(=O)N(C)Cc4cn(C)nc4C)c(Cl)c3N2)cc1 (stereo not given)
AC50 (Cytochrome P450 2C19; read-out: AC50): 17.8 µM (inconclusive)
AC50 (Cytochrome P450 2C9): 17.8 µM (inconclusive)

Cc1s/c(=N\C(=O)c2ccco2)n(C)c1-c1ccc(F)cc1
AC50 (Cytochrome P450 2C19; read-out: AC50): 3.55 µM (inconclusive)

CC(C)N(CCn1c(=S)[nH]c2ccccc2c1=O)C(C)C
EC50 [3]: 9.1 µM (active)

CN(Cc1c[nH]c2ccccc12)C1CCCCC1
EC50 [1]: 0.699 µM (active)
EC50 [2]: 23.9 µM (active)

COc1ccc(S(=O)(=O)N(CC(=O)NCC2CCCO2)c2ccc(F)cc2)cc1OC (stereo not given)
AC50 (Cytochrome P450 2C19; read-out: AC50): 10 µM (inconclusive)
AC50 (Cytochrome P450 2C9): 10 µM (inconclusive)

CCCCCC(=O)NC(=S)NNC(=O)c1ccc([N+](=O)[O-])cc1
EC50 [3]: 5.19 µM (active)

CC(=O)N(C)c1nnc(-c2cnccn2)s1
AC50 (Cytochrome P450 2C19): inconclusive

O=C(Cc1nnc(O)c2ccccc12)NCc1ccccn1
IC50 (H9c2): 35.7 µM (inactive)

OCCSCc1cc(Cl)cc(Cl)c1O
AC50 (Cytochrome P450 2C9): 3.98 µM (inconclusive)

O=C(COc1ccc(F)cc1)Nc1cc(S(=O)(=O)N2CCCCC2)ccc1N1CCCCC1
EC50 [1]: 2.15 µM (active)
EC50 [2]: > 60 µM (not active)

CCCCn1c(SC(C)C(N)=O)nc2cc(C(=O)OC)ccc2c1=O (stereo not given)
AC50 (Cytochrome P450 2C19; read-out: AC50): 3.55 µM (inconclusive)
AC50 (Cytochrome P450 2C9): 8.91 µM (inconclusive)

O=C(Nc1nc2c(s1)CCCC2)c1ccc(S(=O)(=O)N2CCCc3ccccc32)cc1
EC50 [1]: 2.07 µM (active)
EC50 [2]: > 60 µM (inconclusive)

O=C(c1ccc(-c2nnc(Nc3ccccc3)c3ccccc23)cc1)N1C[C@H]2C[C@H](C1)c1cccc(=O)n1C2
AC50 (Cytochrome P450 1A2): 14.1 µM (inconclusive)
AC50 (Cytochrome P450 2C9): 2 µM (inconclusive)

COc1ccc(-c2csc(NC(=O)c3ccc(OCC(=O)N4CCOCC4)c(OC)c3)n2)cc1OC
IC50 (H9c2): > 79 µM (inactive)

CCOC(=O)C1CCCN(C(=O)CCCOc2cc(=O)n(C)c3ccccc23)C1 (stereo not given)
AC50 (Cytochrome P450 1A2): 25.1 µM (inconclusive)

C=CCN1C(=O)c2cccc3c(N4CCCCC4)ccc(c23)C1=O
EC50 [3]: 5.47 µM (active)

Cc1nc2ccccc2c(=O)n1-n1cnnc1
AC50 (Cytochrome P450 1A2): 3.16 µM (inconclusive)

COc1ccc(C(=O)NN/C=C/C(=O)c2ccc(Br)cc2)cc1
IC50 (H9c2): > 79 µM (inactive)

COc1ccc(-c2cc(C(=O)NC(C)c3ccccn3)c3ccccc3n2)cc1OC (stereo not given)
IC50 (H9c2): > 79 µM (inactive)

N#Cc1ccc(-c2ccc(OCC(O)CN3CCCCC3)cc2)cc1 (stereo not given)
EC50 [1]: 1.98 µM (active)
EC50 [2]: 12.1 µM (active)

COc1cc(-c2cc(NC(C)=O)c3ncc(-c4ccc(F)cc4)n3c2)cc(OC)c1OC
IC50 (H9c2): > 79 µM (inactive)

Cc1sc2nc(SCC(=O)N3CCOCC3)nc(O)c2c1C
IC50 (H9c2): > 79 µM (inactive)

N#Cc1c(-c2ccc(F)cc2)cc(-c2ccccc2)nc1SCC(=O)NCC(=O)O
EC50 [3]: 5.47 µM (active)

CC(C)(O)c1cn(-c2nonc2N)nn1
AC50 (Cytochrome P450 2C19; read-out: AC50): 3.16 µM (inconclusive)
AC50 (Cytochrome P450 1A2): 39.8 µM (inconclusive)

O=C(O)CCSCc1ccccc1
AC50 (Cytochrome P450 2C19): inconclusive

O=C(CN(C(=O)Cn1nnc(-c2cccs2)n1)c1cnc2ccccc2c1)NCC1CCCO1 (stereo not given)
IC50 (H9c2): 75.1 µM (inactive)

CC(C)=CCc1ccc(=O)c(O)cc1C(C)C
IC50 (H9c2): > 79 µM (inactive)

CN(Cc1ccco1)c1cc(-c2cccnc2)ncn1
AC50 (Cytochrome P450 2C19; read-out: AC50): 20 µM (inconclusive)

CC(C)(C)C(C(Oc1ccc(Cl)cc1)n1cncn1)n1nnnc1C(c1cccc(Cl)c1)N1CCCCC1 (stereo not given)
EC50 [1]: 1.59 µM (active)
EC50 [2]: > 60 µM (not active)

N#CCCn1c(=O)c(CCc2ccccc2)nc2cnc(Oc3ccccc3)nc21
AC50 (Cytochrome P450 1A2): 12.6 µM (inconclusive)

N#CCCn1cc(/C=N/O)c(-c2ccc(Cl)cc2)n1
AC50 (Cytochrome P450 2C9): 15.8 µM (inconclusive)

COc1cc(-c2cc(C(=O)Nc3cccc(C(C)=O)c3)c3ccccc3n2)cc(OC)c1OC
IC50 (H9c2): > 79 µM (inactive)

O=c1[nH]c2c(S)nc(O)nc2n1-c1ccccc1
AC50 (Cytochrome P450 2C19): inconclusive

COc1ccc(NC(=O)c2cc(-c3cccnc3)nc3c(C)c(C)ccc23)c(OC)c1
EC50 [1]: 2.69 µM (active)
EC50 [2]: > 60 µM (not active)

CCCS(=O)(=O)N1CCN(CC2CC=CCC2)CC1 (stereo not given)
AC50 (Cytochrome P450 1A2): 12.6 µM (inconclusive)

CC(OC(=O)Cn1[nH]c(=O)c2ccccc2c1=O)C(=O)Nc1ccc(F)cc1 (stereo not given)
IC50 (H9c2): > 79 µM (inactive)

Cc1ccc(OC(F)F)c(NC(=O)Nc2cccc(C(F)(F)F)c2)c1
EC50 [1]: 2.41 µM (active)
EC50 [2]: > 60 µM (not active)

c1csc(CNc2ccnc(-c3ccoc3)n2)c1
AC50 (Cytochrome P450 2C19; read-out: AC50): 31.6 µM (inconclusive)

COc1cc(C(=O)Nc2nc(OC)c(-c3ccccc3)c(OC)n2)cc(OC)c1OC
IC50 (H9c2): > 79 µM (inactive)

CSc1ccc2c(c1)N(CC[C@H]1CCCCN1C)c1ccccc1S2
AC50 (Cytochrome P450 2C19; read-out: AC50): 20 µM (inconclusive)

N[C@@H](Cn1cc(I)c(=O)[nH]c1=O)C(=O)O
AC50 (Cytochrome P450 1A2): 39.8 µM (inconclusive)

CCN(CC)S(=O)(=O)c1cccc(C(=O)N/N=C/c2ccccn2)c1
IC50 (H9c2): > 79 µM (inactive)

O=C(CSc1nnc(COc2ccc(F)cc2)o1)N1c2ccccc2CCc2ccccc21
EC50 [1]: 1 µM (active)
EC50 [2]: > 60 µM (not active)

COc1ccc(-c2nc3cnc(Oc4ccccc4)nc3n(Cc3cccs3)c2=O)cc1
AC50 (Cytochrome P450 2C9): 1.26 µM (inconclusive)

O=[N+]([O-])c1ccc(C[S+]([O-])Cc2ccccc2)cc1 (stereo not given)
AC50 (Cytochrome P450 1A2): 3.16 µM (inconclusive)

NC(=O)CNC(=O)[C@@H]1CC2(CC(c3ccccc3)=NO2)CN1C(=O)c1ccc(Br)cc1 (stereo not given in full)
AC50 (Cytochrome P450 2C19; read-out: AC50): 39.8 µM (inconclusive)
AC50 (Cytochrome P450 1A2): 25.1 µM (inconclusive)

COc1ccc(OC)c(/C=N/Nc2nncn2/N=C/c2cc(OC)ccc2OC)c1
IC50 (H9c2): > 79 µM (inactive)

COc1cccc(N2CCN(C(=O)Nc3ccc4c(c3)NC(=O)CO4)CC2)c1
AC50 (Cytochrome P450 2C9): 12.6 µM (inconclusive)

COc1ccc(-c2nc3cnc(N4CCN(C)CC4)nc3n(C3CC3)c2=O)cc1
AC50 (Cytochrome P450 1A2): 20 µM (inconclusive)
